Assay results as given in PMC6211260 (Journal of Enzyme Inhibition and Medicinal Chemistry, 2018).

Columns and labels:
renal cancer cell lines = assay: NCI five-dose testing, subpanel mean; assay type: cell-based; details: subpanel VII: renal cancer
Protocol: (§1) Screening against the cancer cell lines was carried out at the National Cancer Institute (NCI, Bethesda, Maryland, USA) applying the standard protocol of the NCI[22].

CNS cancer cell lines = assay: NCI five-dose testing, subpanel mean; assay type: cell-based; details: subpanel IV: CNS cancer
Protocol: as §1

breast cancer cell lines = assay: NCI five-dose testing, subpanel mean; assay type: cell-based; details: subpanel IX: breast cancer
Protocol: as §1

[1] = test system: non-small cell lung cancer cell lines; assay: NCI five-dose testing, subpanel mean; assay type: cell-based; details: subpanel II: non-small cell lung cancer
Protocol: as §1

melanoma cell lines = assay: NCI five-dose testing, subpanel mean; assay type: cell-based; details: subpanel V: melanoma
Protocol: as §1

[2] = test system: prostate cancer cell lines; assay: NCI five-dose testing, subpanel mean; assay type: cell-based; details: subpanel VIII: prostate cancer
Protocol: as §1

Leukaemia cell lines = assay: NCI five-dose testing, subpanel mean; assay type: cell-based; details: subpanel I: Leukaemia
Protocol: as §1

colon cancer cell lines = assay: NCI five-dose testing, subpanel mean; assay type: cell-based; details: subpanel III: colon cancer
Protocol: as §1

[3] = test system: ovarian cancer cell lines; assay: NCI five-dose testing, subpanel mean; assay type: cell-based; details: subpanel VI: ovarian cancer
Protocol: as §1

NCI-60 cell line panel = assay: NCI-60 single-dose (10 µM) antiproliferative screening, mean over panel; assay type: cell-based; details: single-dose 10 µM
Protocol: as §1
(§2) The final target compounds were submitted to the National Cancer Institute (NCI), Maryland, USA[23]. Thirty-one compounds were selected to be tested over 60 cell lines at single dose 10 µM.

[4] = test system: SK-MEL-5 melanoma cell line; assay: NCI five-dose testing; assay type: cell-based; details: Homo sapiens
Protocol: as §1

[5] = test system: HOP-92 non-small cell lung cancer cell line; assay: NCI five-dose testing; assay type: cell-based; details: Homo sapiens
Protocol: as §1

[6] = test system: U251 CNS cancer cell line; assay: NCI five-dose testing; assay type: cell-based; details: Homo sapiens
Protocol: as §1

[7] = test system: PC-3 prostate cancer cell line; assay: NCI five-dose testing; assay type: cell-based; details: Homo sapiens
Protocol: as §1

[8] = test system: K-562 leukaemia cell line; assay: NCI five-dose testing; assay type: cell-based; details: Homo sapiens
Protocol: as §1

[9] = test system: MDA-MB-468 breast cancer cell line; assay: NCI five-dose testing; assay type: cell-based; details: Homo sapiens
Protocol: as §1

[10] = test system: OVCAR-4 ovarian cancer cell line; assay: NCI five-dose testing; assay type: cell-based; details: Homo sapiens
Protocol: as §1

[11] = test system: A498 renal cancer cell line; assay: NCI five-dose testing; assay type: cell-based; details: Homo sapiens
Protocol: as §1

[12] = test system: HT-29 colon cancer cell line; assay: NCI five-dose testing; assay type: cell-based; details: Homo sapiens
Protocol: as §1

[13] = test system: HCC-116 colon cancer cell line; assay: NCI-60 single-dose screening; assay type: cell-based; details: read-out: per cent inhibition
Protocol: as §1, §2

[14] = test system: SF-295 CNS cancer cell line; assay: NCI-60 single-dose screening; assay type: cell-based; details: Homo sapiens, read-out: per cent inhibition
Protocol: as §1, §2

[15] = test system: Colo 205 colon cancer cell line; assay: NCI-60 single-dose screening; assay type: cell-based; details: Homo sapiens, read-out: per cent inhibition
Protocol: as §1, §2

JNK3 = biological target: T1, JNK3 (Homo sapiens, UniProt P53779); assay: In vitro kinase screening (Kinase HotSpot); assay type: biochemical; details: single dose of 10 µM
T1 construct: purchased Reaction Biology Corp
Text: (§3) To investigate the biological target of compound, Reaction Biology Corp. Kinase HotSpotSM service was used adopting standard assay protocol.

JNK2 = biological target: T2, JNK2 (Homo sapiens, UniProt P45984); assay: In vitro kinase screening (Kinase HotSpot); assay type: biochemical; details: single dose of 10 µM
T2 construct: purchased Reaction Biology Corp
T2 sequence (P45984 whole entry): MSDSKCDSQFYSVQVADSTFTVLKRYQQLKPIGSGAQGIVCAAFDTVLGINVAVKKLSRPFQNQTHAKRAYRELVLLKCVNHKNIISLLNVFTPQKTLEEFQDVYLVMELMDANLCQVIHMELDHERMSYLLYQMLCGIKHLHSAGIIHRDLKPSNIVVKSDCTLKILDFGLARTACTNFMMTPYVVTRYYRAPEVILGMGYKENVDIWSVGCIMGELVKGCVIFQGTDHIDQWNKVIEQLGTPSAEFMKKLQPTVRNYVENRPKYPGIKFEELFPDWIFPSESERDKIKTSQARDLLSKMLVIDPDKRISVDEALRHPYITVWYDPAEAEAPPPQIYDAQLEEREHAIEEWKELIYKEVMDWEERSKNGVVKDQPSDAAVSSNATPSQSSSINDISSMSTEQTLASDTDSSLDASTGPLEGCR
Text: as §3

JNK1 = biological target: T3, JNK1 (Homo sapiens, UniProt P45983); assay: In vitro kinase screening (Kinase HotSpot); assay type: biochemical; details: single dose of 10 µM
T3 construct: purchased Reaction Biology Corp
T3 sequence (P45983 whole entry): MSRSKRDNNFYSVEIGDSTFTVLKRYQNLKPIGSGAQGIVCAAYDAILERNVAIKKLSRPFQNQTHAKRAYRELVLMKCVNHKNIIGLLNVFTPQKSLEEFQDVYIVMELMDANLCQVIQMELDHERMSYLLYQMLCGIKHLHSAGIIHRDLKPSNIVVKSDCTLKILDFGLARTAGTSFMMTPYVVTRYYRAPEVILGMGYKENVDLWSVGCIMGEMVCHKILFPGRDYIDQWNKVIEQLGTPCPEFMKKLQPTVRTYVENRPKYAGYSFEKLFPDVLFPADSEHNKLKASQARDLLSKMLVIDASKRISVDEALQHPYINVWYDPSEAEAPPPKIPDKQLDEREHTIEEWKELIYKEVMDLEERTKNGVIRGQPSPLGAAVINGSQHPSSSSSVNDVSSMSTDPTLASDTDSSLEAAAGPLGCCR
Text: as §3

BRAF = biological target: T4, BRAF (Homo sapiens, UniProt P15056); assay: In vitro kinase screening (Kinase HotSpot); assay type: biochemical; details: single dose of 10 µM
T4 construct: purchased Reaction Biology Corp
T4 sequence (P15056 whole entry): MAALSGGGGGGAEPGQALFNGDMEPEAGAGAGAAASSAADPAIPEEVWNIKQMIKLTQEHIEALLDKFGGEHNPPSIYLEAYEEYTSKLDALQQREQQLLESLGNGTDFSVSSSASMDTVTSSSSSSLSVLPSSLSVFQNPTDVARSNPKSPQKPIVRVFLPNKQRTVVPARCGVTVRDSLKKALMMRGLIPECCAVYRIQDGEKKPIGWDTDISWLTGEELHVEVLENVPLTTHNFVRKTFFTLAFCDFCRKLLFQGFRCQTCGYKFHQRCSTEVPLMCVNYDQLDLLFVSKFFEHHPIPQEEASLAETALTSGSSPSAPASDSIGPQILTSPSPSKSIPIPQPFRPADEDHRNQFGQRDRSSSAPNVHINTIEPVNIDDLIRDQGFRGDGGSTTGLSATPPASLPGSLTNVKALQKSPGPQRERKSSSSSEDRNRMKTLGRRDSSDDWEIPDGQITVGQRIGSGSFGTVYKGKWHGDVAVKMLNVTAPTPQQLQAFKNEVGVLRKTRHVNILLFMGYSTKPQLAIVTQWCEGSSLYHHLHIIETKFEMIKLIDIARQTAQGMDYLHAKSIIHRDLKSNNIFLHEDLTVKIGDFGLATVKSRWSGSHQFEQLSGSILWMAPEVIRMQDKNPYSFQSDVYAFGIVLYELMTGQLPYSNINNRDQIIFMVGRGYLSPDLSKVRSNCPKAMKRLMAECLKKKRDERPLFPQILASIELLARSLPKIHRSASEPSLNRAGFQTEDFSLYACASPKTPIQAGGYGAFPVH
Text: as §3

EGFR = biological target: T5, EGFR (Homo sapiens, UniProt P00533); assay: In vitro kinase screening (Kinase HotSpot); assay type: biochemical; details: single dose of 10 µM
T5 construct: purchased Reaction Biology Corp
Text: as §3

BRAF (V600E) = biological target: T6, BRAF (V600E) (Homo sapiens, UniProt P15056, V600E); assay: In vitro kinase screening (Kinase HotSpot); assay type: biochemical; details: single dose of 10 µM, BRAF (V599E) in Table 6, BRAF (V600E) in text
T6 construct: purchased Reaction Biology Corp
T6 sequence (P15056 whole entry V600E): as the sequence (P15056 whole entry) above, with V600E counted along it
Text: as §3

CDK2/cyclin E = biological target: T7, CDK2/cyclin E (Homo sapiens, UniProt P24941); assay: In vitro kinase screening (Kinase HotSpot); assay type: biochemical; details: single dose of 10 µM
T7 construct: purchased Reaction Biology Corp
Text: as §3

ROS/ROS1 = biological target: T8, ROS/ROS1 (Homo sapiens, UniProt P08922); assay: In vitro kinase screening (Kinase HotSpot); assay type: biochemical; details: single dose of 10 µM
T8 construct: purchased Reaction Biology Corp
T8 sequence (P08922 28-2347): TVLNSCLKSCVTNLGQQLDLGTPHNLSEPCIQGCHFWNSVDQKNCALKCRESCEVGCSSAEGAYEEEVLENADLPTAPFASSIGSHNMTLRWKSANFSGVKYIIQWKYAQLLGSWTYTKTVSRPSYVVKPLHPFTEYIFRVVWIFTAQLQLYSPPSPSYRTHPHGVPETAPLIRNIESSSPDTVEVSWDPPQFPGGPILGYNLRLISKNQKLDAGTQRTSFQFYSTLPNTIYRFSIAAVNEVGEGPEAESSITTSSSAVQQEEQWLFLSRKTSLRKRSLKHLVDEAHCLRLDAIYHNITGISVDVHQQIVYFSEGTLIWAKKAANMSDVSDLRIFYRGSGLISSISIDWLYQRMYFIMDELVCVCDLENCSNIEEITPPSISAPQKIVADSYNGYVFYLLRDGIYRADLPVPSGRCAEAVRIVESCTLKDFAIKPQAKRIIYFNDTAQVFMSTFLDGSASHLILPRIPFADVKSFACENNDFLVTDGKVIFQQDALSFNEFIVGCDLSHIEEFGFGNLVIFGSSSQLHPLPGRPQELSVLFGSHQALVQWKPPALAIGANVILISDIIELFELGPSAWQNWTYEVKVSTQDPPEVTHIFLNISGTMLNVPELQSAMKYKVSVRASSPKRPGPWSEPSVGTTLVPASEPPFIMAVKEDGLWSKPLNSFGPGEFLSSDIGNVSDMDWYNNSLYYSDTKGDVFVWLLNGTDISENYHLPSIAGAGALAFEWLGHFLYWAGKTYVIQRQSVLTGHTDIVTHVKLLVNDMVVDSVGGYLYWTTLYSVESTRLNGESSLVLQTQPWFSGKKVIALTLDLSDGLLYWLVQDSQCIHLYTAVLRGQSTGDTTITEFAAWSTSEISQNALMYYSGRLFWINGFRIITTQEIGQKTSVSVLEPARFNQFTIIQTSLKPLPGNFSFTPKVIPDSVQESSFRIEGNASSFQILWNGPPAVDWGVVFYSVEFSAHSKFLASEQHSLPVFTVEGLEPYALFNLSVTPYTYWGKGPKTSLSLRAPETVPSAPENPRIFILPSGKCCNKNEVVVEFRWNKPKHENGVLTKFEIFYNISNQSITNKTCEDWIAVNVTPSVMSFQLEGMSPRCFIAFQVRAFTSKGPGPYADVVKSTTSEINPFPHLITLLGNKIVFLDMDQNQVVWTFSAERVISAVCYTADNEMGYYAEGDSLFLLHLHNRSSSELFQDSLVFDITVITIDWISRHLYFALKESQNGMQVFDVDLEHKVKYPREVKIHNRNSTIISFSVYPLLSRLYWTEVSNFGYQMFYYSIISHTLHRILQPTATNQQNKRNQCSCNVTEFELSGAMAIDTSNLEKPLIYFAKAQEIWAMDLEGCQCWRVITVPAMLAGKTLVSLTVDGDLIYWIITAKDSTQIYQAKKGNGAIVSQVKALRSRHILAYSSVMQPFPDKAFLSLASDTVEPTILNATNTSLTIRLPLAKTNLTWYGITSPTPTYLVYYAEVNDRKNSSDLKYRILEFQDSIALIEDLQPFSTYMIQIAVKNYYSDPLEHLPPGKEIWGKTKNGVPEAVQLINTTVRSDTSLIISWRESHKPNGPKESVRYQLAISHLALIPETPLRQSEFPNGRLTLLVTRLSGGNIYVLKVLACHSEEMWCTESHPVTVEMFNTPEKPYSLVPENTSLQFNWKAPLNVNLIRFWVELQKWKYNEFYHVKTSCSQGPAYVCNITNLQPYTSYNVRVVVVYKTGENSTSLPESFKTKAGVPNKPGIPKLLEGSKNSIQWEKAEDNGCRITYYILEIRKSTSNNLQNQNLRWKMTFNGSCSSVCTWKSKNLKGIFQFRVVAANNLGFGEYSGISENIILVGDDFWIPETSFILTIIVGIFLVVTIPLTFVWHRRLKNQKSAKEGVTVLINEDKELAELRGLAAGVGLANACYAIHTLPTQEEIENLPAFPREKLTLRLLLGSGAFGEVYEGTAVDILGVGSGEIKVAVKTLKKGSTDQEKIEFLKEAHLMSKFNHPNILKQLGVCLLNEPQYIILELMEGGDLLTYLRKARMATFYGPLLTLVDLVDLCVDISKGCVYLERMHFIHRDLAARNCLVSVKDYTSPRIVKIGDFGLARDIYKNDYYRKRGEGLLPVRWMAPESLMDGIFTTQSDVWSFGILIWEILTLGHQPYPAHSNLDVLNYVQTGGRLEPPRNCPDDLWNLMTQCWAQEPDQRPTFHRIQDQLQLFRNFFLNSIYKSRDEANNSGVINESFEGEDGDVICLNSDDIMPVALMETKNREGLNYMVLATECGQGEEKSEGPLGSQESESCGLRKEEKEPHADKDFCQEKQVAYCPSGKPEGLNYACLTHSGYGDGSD
Text: as §3

P38a/MAPK14 = biological target: T9, P38a/MAPK14 (Homo sapiens, UniProt Q16539); assay: In vitro kinase screening (Kinase HotSpot); assay type: biochemical; details: single dose of 10 µM, P38a/MAPK14
T9 construct: purchased Reaction Biology Corp
T9 sequence (Q16539 whole entry): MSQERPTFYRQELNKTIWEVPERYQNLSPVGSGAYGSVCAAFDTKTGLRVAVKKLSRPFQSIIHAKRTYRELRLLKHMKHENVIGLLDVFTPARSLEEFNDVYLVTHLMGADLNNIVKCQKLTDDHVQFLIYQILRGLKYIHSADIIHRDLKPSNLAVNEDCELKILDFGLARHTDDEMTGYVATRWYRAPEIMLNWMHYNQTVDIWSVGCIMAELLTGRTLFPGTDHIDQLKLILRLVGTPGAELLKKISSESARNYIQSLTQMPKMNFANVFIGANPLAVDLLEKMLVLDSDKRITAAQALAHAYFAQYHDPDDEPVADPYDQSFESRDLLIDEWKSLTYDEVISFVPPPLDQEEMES
Text: as §3

ABL1 (T315I) = biological target: T10, ABL1 (T315I) (Homo sapiens, UniProt P00519, T315I); assay: In vitro kinase screening (Kinase HotSpot); assay type: biochemical; details: single dose of 10 µM
T10 construct: purchased Reaction Biology Corp
Text: as §3

IKKb/IKBKB = biological target: T11, IKKb/IKBKB (Homo sapiens, UniProt O14920); assay: In vitro kinase screening (Kinase HotSpot); assay type: biochemical; details: single dose of 10 µM
T11 construct: purchased Reaction Biology Corp
T11 sequence (O14920 1-756): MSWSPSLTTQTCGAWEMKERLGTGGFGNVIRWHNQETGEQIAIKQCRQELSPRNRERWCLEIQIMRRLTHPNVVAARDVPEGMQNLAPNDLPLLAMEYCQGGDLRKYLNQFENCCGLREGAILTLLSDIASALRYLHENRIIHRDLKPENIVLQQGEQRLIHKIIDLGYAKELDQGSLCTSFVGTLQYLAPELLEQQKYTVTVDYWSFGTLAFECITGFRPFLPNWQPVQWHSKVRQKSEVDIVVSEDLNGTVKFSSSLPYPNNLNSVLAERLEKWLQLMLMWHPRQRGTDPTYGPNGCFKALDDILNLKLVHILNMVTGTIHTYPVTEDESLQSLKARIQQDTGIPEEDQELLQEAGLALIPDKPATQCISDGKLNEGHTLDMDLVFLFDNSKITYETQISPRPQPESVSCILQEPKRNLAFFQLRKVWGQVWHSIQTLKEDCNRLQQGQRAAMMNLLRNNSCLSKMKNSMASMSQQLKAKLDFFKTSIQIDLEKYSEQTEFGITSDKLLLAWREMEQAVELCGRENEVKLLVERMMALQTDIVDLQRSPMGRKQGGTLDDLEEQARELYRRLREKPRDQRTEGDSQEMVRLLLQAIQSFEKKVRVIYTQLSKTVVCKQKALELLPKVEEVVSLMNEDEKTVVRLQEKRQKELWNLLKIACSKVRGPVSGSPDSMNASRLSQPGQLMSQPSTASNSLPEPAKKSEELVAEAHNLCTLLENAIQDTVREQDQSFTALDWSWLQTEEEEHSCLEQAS
Text: as §3

GSK3b = biological target: T12, GSK3b (Homo sapiens, UniProt P49841); assay: In vitro kinase screening (Kinase HotSpot); assay type: biochemical; details: single dose of 10 µM
T12 construct: purchased Reaction Biology Corp
T12 sequence (P49841 whole entry): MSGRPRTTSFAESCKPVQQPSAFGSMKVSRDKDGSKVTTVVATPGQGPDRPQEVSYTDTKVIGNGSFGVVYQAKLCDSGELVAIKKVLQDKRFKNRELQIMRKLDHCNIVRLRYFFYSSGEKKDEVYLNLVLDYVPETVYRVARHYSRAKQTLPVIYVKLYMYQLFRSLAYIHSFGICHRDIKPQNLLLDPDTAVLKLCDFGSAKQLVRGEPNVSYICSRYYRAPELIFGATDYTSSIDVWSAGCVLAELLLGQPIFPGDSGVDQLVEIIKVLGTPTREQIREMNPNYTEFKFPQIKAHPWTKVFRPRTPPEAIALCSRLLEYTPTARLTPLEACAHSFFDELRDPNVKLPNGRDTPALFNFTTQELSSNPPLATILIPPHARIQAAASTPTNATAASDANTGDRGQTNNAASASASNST
Text: as §3

[16] = test system: HT29 colon cancer cell line; assay: NCI-60 single-dose screening; assay type: cell-based; details: 10 µM
Protocol: as §1, §2

SR leukaemia cell line = assay: NCI-60 single-dose screening; assay type: cell-based; details: 10 µM
Protocol: as §1, §2

Structure (SMILES): O=S(=O)(NCCCNc1cc(-c2cn(-c3ccccc3)nc2-c2cccc(O)c2)ccn1)c1ccc(Br)cc1 [Compound 2k, 4-Bromo-N-(3-((4-(3-(3-hydroxyphenyl)-1-phenyl-1H-pyrazol-4-yl)pyridin-2-yl)amino)propyl)benzenesulfonamide]
- IC50 (renal cancer cell lines): 1890 nM
- IC50 (CNS cancer cell lines): 1700 nM
- IC50 (breast cancer cell lines): 1110 nM
- IC50 [1]: 1960 nM
- IC50 (melanoma cell lines): 1620 nM
- IC50 [2]: 2030 nM
- IC50 (Leukaemia cell lines): 1550 nM
- IC50 (colon cancer cell lines): 1480 nM
- IC50 [3]: 2110 nM
- inhibition at 10 µM (NCI-60 cell line panel; 60-cancer cell line screening): 90.6%
- number of cell lines with more than 100% inhibition (NCI-60 cell line panel; NCI-60 panel): 13
- IC50 ([4]; SK-MEL-5): 1270 nM
- LC50 (lethal concentration 50) ([4]; SK-MEL-5, read-out: LD50 (lethal dose 50)): 5300 nM
- IC (TGI) ([4]; SK-MEL-5, read-out: TGI (total growth inhibition concentration)): 2600 nM
- IC50 ([5]; HOP-92): 1830 nM
- IC (TGI) ([5]; HOP-92, HOP-92, read-out: TGI (total growth inhibition concentration)): 7500 nM
- LD50 (lethal dose 50) ([5]; HOP-92, read-out: LD50 (lethal dose 50)): > 100 µM
- CC50 ([6]; U-251, read-out: LD50 (lethal dose 50)): 19900 nM
- IC50 ([6]; U-251, U251, read-out: IC50): 1210 nM
- IC (TGI) ([6]; U-251, U251, read-out: TGI (total growth inhibition concentration)): 4400 nM
- LC50 (lethal concentration 50) ([7]; PC-3, read-out: LD50 (lethal dose 50)): > 100000 nM
- IC50 ([7]; PC-3, read-out: IC50): 2110 nM
- IC (TGI) ([7]; PC-3, read-out: TGI (total growth inhibition concentration)): 7800 nM
- CC50 ([8]; K562, read-out: LD50 (lethal dose 50)): > 100000 nM
- IC50 ([8]; K562, K-562): 440 nM
- IC (TGI) ([8]; K562, K-562, read-out: TGI (total growth inhibition concentration)): 2800 nM
- IC50 ([9]; MDA-MB-468): 1540 nM
- CC50 ([9]; MDA-MB-468, read-out: LD50 (lethal dose 50)): > 100000 nM
- IC (TGI) ([9]; MDA-MB-468, read-out: TGI (total growth inhibition concentration)): 5600 nM
- IC50 ([10]; OVCAR-4): 1660 nM
- LC50 (lethal concentration 50) ([10]; OVCAR-4, read-out: LD50 (lethal dose 50)): > 100000 nM
- IC (TGI) ([10]; OVCAR-4, read-out: TGI (total growth inhibition concentration)): 8600 nM
- IC50 ([11]; A498): 380 nM
- LC50 (lethal concentration 50%) ([11]; A498, read-out: LD50 (lethal dose 50)): 11900 nM
- IC (TGI) ([11]; A498, read-out: TGI (total growth inhibition concentration)): 2800 nM
- CC50 ([12]; HT-29, read-out: LD50 (lethal dose 50)): 7100 nM
- IC50 ([12]; HT-29, read-out: IC50): 630 nM
- IC (TGI) ([12]; HT-29, read-out: TGI (total growth inhibition concentration)): 2300 nM
- inhibition at 10 µM [13]: 140%
- inhibition at 10 µM [14]: 147%
- inhibition at 10 µM [15]: 168%

Structure (SMILES): COc1cccc(-c2nn(-c3ccccc3)cc2-c2ccnc(NCCCNS(=O)(=O)c3ccc(Cl)cc3)c2)c1 [Compound 2c, 4-Chloro-N-(3-((4-(3-(3-methoxyphenyl)-1-phenyl-1H-pyrazol-4-yl)pyridin-2-yl)amino)propyl) benzenesulfonamide]
- Inhibition % (JNK3): 24.23 ± 0.03%
- Inhibition % (JNK2): 59.68 ± 0.01%
- Inhibition % (JNK1): 69.19 ± 0.02%
- Inhibition % (BRAF): 20.87 ± 0.30%
- Inhibition % (EGFR): 9.20 ± 4.45%
- Inhibition % (BRAF (V600E)): 44.20 ± 0.40%
- Inhibition % (CDK2/cyclin E): 9.80 ± 1.01%
- Inhibition % (ROS/ROS1): 3.40 ± 0.39%
- Inhibition % (P38a/MAPK14): 65.73 ± 0.66%
- Inhibition % (ABL1 (T315I)): 4.53 ± 0.45%
- Inhibition % (IKKb/IKBKB): 7.79 ± 0.15%
- Inhibition % (GSK3b): 49.31 ± 0.30%
- per cent inhibition [16]: 88.66%
- per cent inhibition (SR leukaemia cell line): 92.74%
